US11780845B2 (Relay Therapeutics, Inc., priority 2019, dated 2023)

Tested on: SNU-16
Experiment: Cell SNU-16 assay
Assay type: cell-based
Settings: Homo sapiens, SNU-16, SNU-16 cells

| SMILES | IC50 |
| --- | --- |
| C=C(C)C(=O)Nc1ccc(-c2cn3ncnc(N)c3c2-c2ccc(C(=O)NCC(C)(C)O)cc2)cc1 [Example 842] | 1000 to 100000 nM |
| C=Cc1ncc(-c2c(-c3ccc(Oc4nccc(C)n4)cc3)c3c(N)ncnc3n2C)cn1 [Example 877] | 250 to 1000 nM |
| C=CC(=O)N1CCC(n2cc(-c3c(-c4ccc(C(=O)N(C)Cc5nc(C)no5)cc4)c4c(N)ncnc4n3C)cn2)CC1 [Example 849] | 250 to 1000 nM |
| C=C(C)C(=O)Nc1ccc(-c2c(-c3ccc4c(c3)CCOC4)c3c(N)ncnc3n2C)cc1 [Example 1292] | 1000 to 100000 nM |
| C=CC(=O)N1CCCc2c1nc(-c1c(-c3ccc(Oc4nccc(C)n4)cc3)c3c(N)ncnc3n1C)n2C [Example 1045] | 1000 to 100000 nM |
| C=C(C)c1ccc(-c2c(-c3ccc4nn[nH]c4c3)c3c(N)ncnc3n2C)cn1 [Example 1407] | 250 to 1000 nM |
| C=CC(=O)N1CCC(c2c(-c3ccc(CC4CCCC4)cc3)c3c(N)ncnc3n2C)C1 (stereo not shown) [Example 799] | 250 to 1000 nM |
| C=C(C)C(=O)Nc1ccc(-c2c(C3=COCCC3)c3c(N)ncnc3n2C)cc1 [Example 1268] | 1000 to 100000 nM |
| C=CC(=O)N[C@@H]1C[C@@H]1c1c(-c2ccc(C(=O)N3CCCC3)cc2)c2c(N)ncnc2n1C (single isomer, unassigned) [Example 973] | 1000 to 100000 nM |
| C#Cc1cc(C)c(-c2c(-c3ccc(Oc4nccc(C)n4)c(F)c3)c3c(N)ncnc3n2CCO)cn1 [Example 1245] | ≤ 100 nM |
| C=C(C)C(=O)Nc1ccc(-c2c(C3=CC[C@H](C(=O)NCC4(F)COC4)CC3)c3c(N)ncnc3n2C)cc1 [Example 1023] | 1000 to 100000 nM |
| C#Cc1cc(N(C)C)c(-c2c(-c3ccc(Oc4nccc(C)n4)c(F)c3)c3c(N)ncnc3n2C)cn1 [Example 1458] | ≤ 100 nM |
| C#Cc1ncc(-c2c(-c3ccc(Oc4nccc(C)n4)cn3)c3c(N)ncnc3n2C)c(OC)c1F [Example 1490] | 1000 to 100000 nM |
| C=C1CCN(c2ccc(-c3c(-c4ccc(Oc5nccc(C)n5)cc4)c4c(N)ncnc4n3C)cc2)C1=O [Example 1060] | 1000 to 100000 nM |

The remaining lines, values ahead:

| IC50 | SMILES |
| --- | --- |
| ≤ 100 nM | C=CC(=O)Nc1ccc(-c2c(-c3cn[nH]c3)c3c(N)ncnc3n2C)cc1 [Example 1128] |
| ≤ 100 nM | C#Cc1cc(C)c(-c2c(-c3ccc(OC(C)C)cc3)c3c(N)ncnc3n2C)cn1 [Example 1160] |
| ≤ 100 nM | C=CC(=O)Nc1cc(-c2c(-c3ccc(Oc4nccc(C)n4)cc3)c3c(N)ncnc3n2C)n(C)n1 [Example 1108] |
| ≤ 100 nM | C#Cc1cc(OC)c(-c2c(-c3ccc(Oc4nccc(C)n4)c(F)c3)c3c(C)ncnc3n2C)cn1 [Example 1418] |
| ≤ 100 nM | C=C(C)C(=O)Nc1ccc(-c2c(-c3ccc(Oc4nccc(C)n4)c(F)c3)c3c(O)ncnc3n2C)cc1 [Example 1057] |
| ≤ 100 nM | C=C(C)C(=O)Nc1ccc(-c2c(C3=CC[C@@H](C(=O)N4CCCC45CCC5)CC3)c3c(N)ncnc3n2C)cc1 [Example 998] |
| ≤ 100 nM | COCC#Cc1ccc2cc(-c3c(-c4ccc(Oc5nccc(C)n5)c(F)c4)c4c(N)ncnc4n3C)ccc2n1 [Example 1427] |
| ≤ 100 nM | C=CC(=O)Nc1cccc(-c2c(C3=CC[C@@H](C(=O)N4CCCC4)CC3)c3c(N)ncnc3n2C)c1 [Example 1019] |
| ≤ 100 nM | C#Cc1nc2cc(-c3c(-c4ccc(Oc5nccc(C)n5)c(F)c4)c4c(N)ncnc4n3C)c(C)cc2n1C [Example 1434] |
| ≤ 100 nM | C#Cc1cc(C)c(-c2c(-c3ccc(Oc4nccc(C)n4)c(Cl)c3)c3c(N)ncnc3n2C)cn1 [Example 1263] |
| ≤ 100 nM | C#Cc1ccc(-c2c(-c3ccc(Oc4nccc(C)n4)cc3F)c3c(N)ncnc3n2C)c(C)n1 [Example 1197] |
| ≤ 100 nM | C=C(C)C(=O)Nc1ccc(-c2c(-c3ccc(Oc4nccc(C)n4)c(F)c3)c3c(C)ncnc3n2C)c(Cl)c1 [Example 1093] |
| ≤ 100 nM | Cc1ccnc(Oc2ccc(-c3c([C@H]4CCN(C(=O)CCl)C4)n(C)c4ncnc(N)c34)cc2)n1 (single isomer, unassigned) [Example 876] |
| ≤ 100 nM | C=C(C)C(=O)Nc1ccc(-c2c(C3=CC[C@H](C(=O)N4CCCC4)OC3)c3c(N)ncnc3n2C)cc1 [Example 1014] |
| ≤ 100 nM | C=CC(=O)Nc1ccc(-c2cn3ncnc(N)c3c2-c2ccc(Oc3cccc(C)n3)cc2)cc1 [Example 829] |

Target: FGFR2 (Homo sapiens (Human), UniProt P21802)
Sequence (P21802 22-821): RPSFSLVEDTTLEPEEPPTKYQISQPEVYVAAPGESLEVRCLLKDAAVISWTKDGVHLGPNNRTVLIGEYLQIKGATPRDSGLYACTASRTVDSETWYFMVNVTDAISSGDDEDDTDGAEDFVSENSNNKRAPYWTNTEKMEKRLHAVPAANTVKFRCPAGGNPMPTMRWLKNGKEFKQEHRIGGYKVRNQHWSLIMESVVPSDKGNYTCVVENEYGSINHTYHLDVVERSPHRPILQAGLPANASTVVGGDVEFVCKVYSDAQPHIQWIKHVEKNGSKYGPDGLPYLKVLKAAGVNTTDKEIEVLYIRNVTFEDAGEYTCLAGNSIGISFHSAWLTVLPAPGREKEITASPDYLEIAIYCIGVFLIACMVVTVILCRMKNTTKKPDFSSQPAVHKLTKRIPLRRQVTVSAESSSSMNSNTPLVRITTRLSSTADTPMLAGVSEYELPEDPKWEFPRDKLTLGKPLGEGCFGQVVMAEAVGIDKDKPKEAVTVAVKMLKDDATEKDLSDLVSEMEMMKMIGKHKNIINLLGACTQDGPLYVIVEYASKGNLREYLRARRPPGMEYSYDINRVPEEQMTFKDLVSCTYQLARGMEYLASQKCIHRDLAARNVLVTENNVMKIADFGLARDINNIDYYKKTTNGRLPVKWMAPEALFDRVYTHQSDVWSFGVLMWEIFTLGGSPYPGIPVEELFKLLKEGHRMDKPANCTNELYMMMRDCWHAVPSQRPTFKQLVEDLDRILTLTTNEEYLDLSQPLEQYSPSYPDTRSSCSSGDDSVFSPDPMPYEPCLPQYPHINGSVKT
Experiment: Biochemical FGFR2 Caliper assay
Settings: not given

| SMILES | IC50 |
| --- | --- |
| C=C(C)C(=O)Nc1ccc(-c2cn3ncnc(N)c3c2-c2ccc(C(=O)NCC(C)(C)O)cc2)cc1 [Example 842] | 250 to 1000 nM |
| C=Cc1ncc(-c2c(-c3ccc(Oc4nccc(C)n4)cc3)c3c(N)ncnc3n2C)cn1 [Example 877] | 100 to 250 nM |
| C=CC(=O)N1CCC(n2cc(-c3c(-c4ccc(C(=O)N(C)Cc5nc(C)no5)cc4)c4c(N)ncnc4n3C)cn2)CC1 [Example 849] | 100 to 250 nM |
| C=C(C)C(=O)Nc1ccc(-c2c(-c3ccc4c(c3)CCOC4)c3c(N)ncnc3n2C)cc1 [Example 1292] | 1000 to 100000 nM |
| C=CC(=O)N1CCCc2c1nc(-c1c(-c3ccc(Oc4nccc(C)n4)cc3)c3c(N)ncnc3n1C)n2C [Example 1045] | 1000 to 100000 nM |
| C=C(C)c1ccc(-c2c(-c3ccc4nn[nH]c4c3)c3c(N)ncnc3n2C)cn1 [Example 1407] | 250 to 1000 nM |
| C=CC(=O)N1CCC(c2c(-c3ccc(CC4CCCC4)cc3)c3c(N)ncnc3n2C)C1 (stereo not shown) [Example 799] | 250 to 1000 nM |
| C=C(C)C(=O)Nc1ccc(-c2c(C3=COCCC3)c3c(N)ncnc3n2C)cc1 [Example 1268] | 1000 to 100000 nM |
| C=CC(=O)N[C@@H]1C[C@@H]1c1c(-c2ccc(C(=O)N3CCCC3)cc2)c2c(N)ncnc2n1C (single isomer, unassigned) [Example 973] | 250 to 1000 nM |
| C#Cc1cc(C)c(-c2c(-c3ccc(Oc4nccc(C)n4)c(F)c3)c3c(N)ncnc3n2CCO)cn1 [Example 1245] | < 100 nM |
| C=C(C)C(=O)Nc1ccc(-c2c(C3=CC[C@H](C(=O)NCC4(F)COC4)CC3)c3c(N)ncnc3n2C)cc1 [Example 1023] | 1000 to 100000 nM |
| C#Cc1cc(N(C)C)c(-c2c(-c3ccc(Oc4nccc(C)n4)c(F)c3)c3c(N)ncnc3n2C)cn1 [Example 1458] | < 100 nM |
| C#Cc1ncc(-c2c(-c3ccc(Oc4nccc(C)n4)cn3)c3c(N)ncnc3n2C)c(OC)c1F [Example 1490] | 1000 to 100000 nM |
| C=C1CCN(c2ccc(-c3c(-c4ccc(Oc5nccc(C)n5)cc4)c4c(N)ncnc4n3C)cc2)C1=O [Example 1060] | 1000 to 100000 nM |

Other lines, results leading:

| IC50 | SMILES |
| --- | --- |
| < 100 nM | C=CC(=O)Nc1ccc(-c2c(-c3cn[nH]c3)c3c(N)ncnc3n2C)cc1 [Example 1128] |
| < 100 nM | C#Cc1cc(C)c(-c2c(-c3ccc(OC(C)C)cc3)c3c(N)ncnc3n2C)cn1 [Example 1160] |
| < 100 nM | C=CC(=O)Nc1cc(-c2c(-c3ccc(Oc4nccc(C)n4)cc3)c3c(N)ncnc3n2C)n(C)n1 [Example 1108] |
| < 100 nM | C#Cc1cc(OC)c(-c2c(-c3ccc(Oc4nccc(C)n4)c(F)c3)c3c(C)ncnc3n2C)cn1 [Example 1418] |
| < 100 nM | C=C(C)C(=O)Nc1ccc(-c2c(-c3ccc(Oc4nccc(C)n4)c(F)c3)c3c(O)ncnc3n2C)cc1 [Example 1057] |
| < 100 nM | C=C(C)C(=O)Nc1ccc(-c2c(C3=CC[C@@H](C(=O)N4CCCC45CCC5)CC3)c3c(N)ncnc3n2C)cc1 [Example 998] |
| < 100 nM | COCC#Cc1ccc2cc(-c3c(-c4ccc(Oc5nccc(C)n5)c(F)c4)c4c(N)ncnc4n3C)ccc2n1 [Example 1427] |
| < 100 nM | C=CC(=O)Nc1cccc(-c2c(C3=CC[C@@H](C(=O)N4CCCC4)CC3)c3c(N)ncnc3n2C)c1 [Example 1019] |
| < 100 nM | C#Cc1nc2cc(-c3c(-c4ccc(Oc5nccc(C)n5)c(F)c4)c4c(N)ncnc4n3C)c(C)cc2n1C [Example 1434] |
| < 100 nM | C#Cc1cc(C)c(-c2c(-c3ccc(Oc4nccc(C)n4)c(Cl)c3)c3c(N)ncnc3n2C)cn1 [Example 1263] |
| < 100 nM | C#Cc1ccc(-c2c(-c3ccc(Oc4nccc(C)n4)cc3F)c3c(N)ncnc3n2C)c(C)n1 [Example 1197] |
| < 100 nM | C=C(C)C(=O)Nc1ccc(-c2c(-c3ccc(Oc4nccc(C)n4)c(F)c3)c3c(C)ncnc3n2C)c(Cl)c1 [Example 1093] |
| < 100 nM | Cc1ccnc(Oc2ccc(-c3c([C@H]4CCN(C(=O)CCl)C4)n(C)c4ncnc(N)c34)cc2)n1 (single isomer, unassigned) [Example 876] |
| < 100 nM | C=C(C)C(=O)Nc1ccc(-c2c(C3=CC[C@H](C(=O)N4CCCC4)OC3)c3c(N)ncnc3n2C)cc1 [Example 1014] |
| < 100 nM | C=CC(=O)Nc1ccc(-c2cn3ncnc(N)c3c2-c2ccc(Oc3cccc(C)n3)cc2)cc1 [Example 829] |
